According to patent publication US11419843B2, “Small molecule BCL-2 functional converters as cancer therapeutics” (Oregon State University, priority 2016, dated 2022):
Read-outs that look alike come from different tables or passages of the source.

Assays:
[1] = tested on: MDA-MB-468 parental and paclitaxel resistant cells; experiment: Clonogenic survival of MDA-MB-468 parental and resistant cells; format: cell-based, human; details: treated continuously for 14 days
From the text: FIG. 29B is the results of clonogenic survival assays in MDA-MB-468 parental and resistant cells treated continuously for 14 days with vehicle, or indicated concentration of paclitaxel. Colony forming ability (%) relative to vehicle treatment. Representative of three independent assays conducted in triplicate.

[2] = tested on: H460 parental and resistant cells; experiment: Colony formation (2D clonogenic, 3D soft agar) of H460 parental and resistant cells; format: cell-based, human; details: treated continuously for 14 days
From the text: Colony forming ability (%) relative to vehicle treatment. Representative of three independent conducted assays in triplicate.

[3] = tested on: MEF Bcl-2−/− and WT MEF cells; experiment: Colony forming ability of MEFs; format: cell-based, mouse; details: 10 μM, 10% FBS, 48 h
[4] = tested on: H460 parental and resistant cells; experiment: Annexin-V apoptosis assay in H460 parental and resistant cells; format: cell-based, human; details: BFC1108 20 μM, 48 hours
Protocol: FIG. 25E is the results of Annexin-V apoptosis assay in H460 cells treated for 48 hours with vehicle or paclitaxel 10 nM, quantification right panel.
Cells were seeded into 6 well tissue culture plates to give approximately 50% confluence and allowed to attach overnight. The cells were then treated for a period of time indicated in figure legend with the appropriate compound at various concentrations (see figure legends). An Annexin V-conjugate PerCP-eFluor 710 apoptosis detection kit was used as described by the manufacturer's protocol (eBioscience 88-8008). Harvesting of cells included collection of floating and attached cells following trypsinization. Data were acquired using an CytoFLEX S flow cytometer (Beckman Coulter, Brea, Calif.) and 10,000 events on the PC5.5 channel were analyzed using CytExpert software (Beckman Coulter). For Nur77 GFP tagged annexin V analysis, GFP positive population were selected and then Annexin V+population was determined. For each sample, 10,000 GFP+ events were collected. Annexin V positive cell population was considered to be the apoptotic population, and the percent of annexin V positive cell population was used to determine the extent of apoptosis.

[5] = tested on: MDA-MB-231 cells with or without Bcl-2 expression vector; experiment: Transwell matrigel invasion assay; format: cell-based, human; details: 10 μM, 16 h
Protocol: FIG. 10F is MDA-MB231 cells with or without Bcl-2 expression vector were treated with 10 μM MTX or vehicle in a matrigel invasion chamber for 16 h and the membrane was then fixed, stained and number of cells invaded counted.
Invasion assay was performed using BD transwell invasion assay kit. MDA-MB-231 cells were treated for 16 h at 10 μM concentration and membrane was stained with prolong anti-fade DAPI stain and number of cells invaded were counted under a fluorescent microscope.

[6] = mice; cited from earlier work
[7] = tested on: paclitaxel resistant H460 cells; experiment: Zebrafish xenograft model; format: in vivo, Zebrafish (Danio rerio); details: 1 to 4 days post injection
Protocol: Total area signifies total h460 cell area in zebrafish.
Zebrafish (Danio rerio) were housed at the Sinnhuber Aquatic Research Laboratory at Oregon State University in accordance with Institutional Animal Care and Use Committee protocols. Adult 5D Tropical zebrafish were maintained under standard laboratory conditions of 28±1° C. on a 14 hr light/10 hr dark photoperiod in fish water consisting of reverse osmosis water supplemented with a commercially available salt solution (0.6%, Instant Ocean, UnitedPet Group, Inc., Blacksburg, Va., USA). Collected eggs were staged according to Kimmel et al. At 24 hours post fertilization (hpf), zebrafish embryos were maintained in E3 media with phenylthiourea (0.003%, Sigma, USA).
For transplantations, H460 cells were labeled with a CM-DiI dye (Thermo Fisher Sci.) according to the manufacturer's protocol and suspended to a concentration of 2×10^7 cells/mL. […]
For imaging, zebrafish xenografts were anesthetized by emersion in 0.2 mg/mL Tricaine E3 media and imbedded in 0.8% (w/v) low melting point agarose on a glass bottom 96-well plate. […] H460 cancer growth was analyzed using Fiji (Fiji is Just Imagej) software. […] Cancer area was calculated by creating a binary mask from thresholds with the Otsu algorithm and calculating the total area of the resulting segmented objects. […]

[8] = tested on: WT and Bcl-2−/− MEFs; experiment: Viability of WT and Bcl-2-/- MEFs; format: cell-based, mouse; details: indicated concentrations, 10% FBS
Protocol: FIG. 9E depicts effect of methotrexate in certain cancer cell types. Left Panel: Bcl-2 levels in WT and Bcl-2−/− MEFs. Right panel: MEF cells were exposed to indicated concentrations of Methotrexate in medium containing 10% FBS and viability was determined by cell titer glo assay.
Cell viability was determined using CellTiter Glo Luminescent Cell Viability Assay (Promega, Madison, Wis.) as per manufacturer instructions. DAPI stain was used to assess apoptosis. Colony forming assays were performed as described previously.

[9] = molecular target: Bcl-2 loop domain (Homo sapiens, UniProt P10415); experiment: NMR titration of 15N-13C labeled Bcl-2 loop domain (HSQC chemical shift perturbation); details: for Kd: 0.2 mM Bcl-2 loop titrated with 0.2-5.4 mM MTX
Chain of Bcl-2 loop domain (P10415 29-90 limits assumed): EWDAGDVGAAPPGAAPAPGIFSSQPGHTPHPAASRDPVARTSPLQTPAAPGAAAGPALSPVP

[10] = humans; cited from earlier work
[11] = low dose; cited from earlier work

Chemical shift perturbations of Bcl-2 loop domain upon titration ([9]; 15N-1H HSQC) | Hill coefficient, His55 ([9]; Hill model fit) | Hill coefficient, His58 ([9]; Hill model fit) | Kd ([9]; Kd from chemical shift perturbation of His55, Hill model fit) [mM] | Kd ([9]; Kd from chemical shift perturbation of His58, Hill model fit) [mM] | Compound | Colony forming ability of MDA-MB-468 paclitaxel resistant cells [1] | Colony formation ability of H460 resistant vs parental line [2] | Colony forming ability of MEF Bcl-2−/− cells [3] | Colony forming ability of WT MEFs [3] | Induction of apoptosis (Annexin V), H460 resistant vs parental [4] | Invasive potential of Bcl-2 over-expressing cells vs vector controls [5] | half-life [6] [h] | Growth of paclitaxel resistant H460 cells in zebrafish [7] | Bcl-2 dependent induction of apoptosis in MEFs with or without Bcl-2 [8] | half-life [10] [h] | bioavailability [11] [%]
 |  |  |  |  | CCOc1ccccc1NC(=O)c1cc(Cl)ccc1NC(=O)c1ccc(OC)cc1 [BFC1108, 5-chloro-N-(2-ethoxyphenyl)-2-[(4-methoxybenzoyl)amino]-benzamide] | reduced colony forming ability of the paclitaxel resistant cells | reduced colony formation ability of resistant line preferentially | absent | fewer colonies | induced apoptosis in the resistant line preferentially |  |  |  |  |  | 
residues 55-60 | 1.2 | 1.0 | 5.1 | 11.4 | CN(Cc1cnc2nc(N)nc(N)c2n1)c1ccc(C(=O)N[C@@H](CCC(=O)O)C(=O)O)cc1 [MTX, (2S)-2-[[4-[(2,4 diaminopteridin-6-yl)methylmethylamino]benzoyl]amino] pentanedioc acid] |  |  |  |  |  | inhibited the invasive potential of Bcl-2 over-expressing cells | 0.5 | reduction in paclitaxel resistant H460 growth in vivo | Bcl-2 dependent induction of apoptosis by MTX was also seen in mouse embryonic fibroblast cells with or without Bcl-2 | 7 to 10 | ≤ 70
